Article PMC10755736, “Modulating Liquid–Liquid Phase Separation of Nck Adaptor Protein against Enteropathogenic Escherichia coli Infection” (ACS Central Science, 2023)
Non-standard residues stand in square brackets, D forms with d. Residues, ends and D or L forms follow the SMILES beside them. *: point of attachment. Biotin = O=C1N[C@H]2[C@H](CS[C@H]2CCCCC(=O)*)N1; Benzoyl(3-SO2F) = O=C(c1cccc(S(=O)(=O)F)c1)*; pY = N[C@@H](Cc1ccc(OP(=O)(O)O)cc1)C(=O)O; Dap = NC[C@H](N)C(=O)O

Experiments:
[1] = tested on: EPEC infection of Caco-2 cells; experiment: EPEC infection assay of Caco-2 cells (CFU counts); format: cell-based, enteropathogenic Escherichia coli; conditions: with L17E-mediated delivery, L17E 40 μM
Method: Lastly, to examine whether pretreatment of Caco-2 cells with L17E/p1 could prevent EPEC infection, we first established a bacterial infection assay (Figure 7a). Caco-2 cells were pretreated with L17E/p1 for 2 h. After excess peptides were removed, Caco-2 cells were then infected with EPEC at different multiplicity of infection (MOI) values (MOI is commonly defined as the ratio of infectious bacteria to cells in a culture) for 3 h, and extra bacterial cells were removed from the culture. Next, gentamicin was added to the cell culture to remove EPEC that are merely attached to the surface of Caco-2 cells, leaving only engulfed EPEC inside Caco2 cells to be counted (gentamicin treatment will not kill intracellular bacteria due to its cellular impermeability). After gentamicin was washed away, cells were lysed to release EPEC cells inside, and the cell lysates were diluted to count the number of EPEC cells as colony-forming units (cfu) on agar plates.
Caco-2 cells were seeded in a 24-well plate at a density of 1×10^4 cells for 24 h and pretreated with peptide complexes for 2 h. After washing with DMEM, cells were infected with EPEC at selected MOI values for 3 h at 37 ℃. Cells were then treated with gentamicin ([…]) for 2 h and lysed with 1% […]
Triton X-100 for 15 min. […]
The sample was loaded onto 12% SDS/PAGE glycerol gel and then transferred onto a PVDF membrane using Bio-Rad […]. The membrane was blocked and incubated with a rabbit anti-Nck antibody (Abcam, Hong Kong) at 4 °C overnight, followed by a n anti -rabbit HRP -labeled secondary antibody (Abcam, Hong Kong).
SPSS 23.0 statistical software was used to process experimental data. The differences between mean ± SEM of three independent experiments were assessed by Student's t -test.

Nck = molecular target: T1, Nck (Homo sapiens, UniProt P16333); experiment: Crosslinking of peptides with recombinant Nck in vitro (SDS-PAGE, Western blotting); format: binding; conditions: peptide:Nck 5:1, 37 °C, PBS, 1 h; SDS-PAGE and anti-biotin Western blotting
T1 construct: GST (followed by PreScission/HRV 3C site) (N, cleaved yes); made in house; host or cells: E. coli BL21(DE3)
Source text: Although peptide Y474 can block Nck-mediated LLPS, the requirement of a high concentration of the blocker peptide is hard to achieve inside the cell. […] The side chains of the Nck lysine residues are pointing toward the residues at pY+1 and pY+2 positions with distances of only 4 to 6 Å. This unique feature gives us an opportunity to design covalent blockers for Nck-SH2 by installing electrophiles at the pY+1 or pY+2 positions to enable a proximal conjugation reaction with one of the lysine residues. Covalent blockage through the characteristic lysine residues will maximize the specificity of the inhibitor toward Nck-SH2. As sulfonyl fluoride has been reported to react with proteinaceous nucleophiles such as lysine, histidine, or cysteine,[34] we installed a sulfonyl fluoride group on the side chain of diaminopropionic acid, giving an unnatural amino acid X1 at different positions such as pY+1 (Asp6) and pY+3 (Val8) of peptide EEHIpYDEVAAD. Besides the amino acid X1, we also included α-chloroacetyl-carrying amino acids X2 and X3, which may also react with proteineous nucleophiles. Electrophile-containing reactive peptides p1 to p11 were synthesized with a biotin tag at the N-termini (Figure 4b). After the reactive peptides were incubated with recombinant Nck protein at a 5:1 ratio at 37 °C in PBS for 1 h, the formation of covalently linked Nck–peptide conjugates could be observed, shown as new protein bands with molecular weights higher than that of Nck based on denatured SDS-PAGE and Western blotting analysis against biotin (Figure 4c). […] At 37 °C in PBS buffer, the 1:1 reaction efficiency reached 50% in 2 min (Figure S4 in the Supporting Information).
Figure 4 Covalently reactive peptides designed based on a Tir peptide. (a) Crystal structure of Nck-SH2 in complex with a peptide EEHIpYDEVAAD from EPEC protein Tir (PDB: 2CI9). (b) List of synthetic reactive peptides. (c) Unnatural amino acids in the peptides. (d) SDS-PAGE (top) and Western blotting (bottom) analyses showing covalent conjugation of the peptides with Nck. […]

Nck-SH2 = conditions: cited from earlier work
Source text: Phosphorylated Tir is known to bind to Nck-SH2. […] Also, the sequence of nephrin contains three Tyr-containing sequences that are similar to those of the Tir peptide: HLYDEV, PLYDEV, and GIYDQV (the potential phosphorylation sites are underscored), with a hydrophobic residue at the pY-1 site, and negatively charged residues at pY+1 and/or pY+2 (Figure 2c). Therefore, we reason that phosphorylation at these Tyr turns nephrin into p-nephrin, a ...

CC[C@H](C)[C@H](NC(=O)[C@H](Cc1c[nH]cn1)NC(=O)[C@H](CCC(=O)O)NC(=O)[C@H](CCC(=O)O)NC(=O)[C@@H]1CCCN1)C(=O)N[C@@H](Cc1ccc(OP(=O)(O)O)cc1)C(=O)N[C@@H](CC(=O)O)C(=O)N[C@@H](CCC(=O)O)C(=O)N[C@H](C(=O)N[C@@H](C)C(=O)N[C@@H](C)C(=O)N[C@@H](CC(=O)O)C(=O)N1CCC[C@H]1C(=O)NCC(N)=O)C(C)C [Y474]
blockage of EPEC invasion/infection of Caco-2 cells [1]: can block EPEC invasion to Caco-2 cells

CC[C@H](C)[C@H](NC(=O)[C@H](Cc1c[nH]cn1)NC(=O)[C@H](CCC(=O)O)NC(=O)[C@H](CCC(=O)O)NC(=O)CCCC[C@@H]1SC[C@@H]2NC(=O)N[C@@H]21)C(=O)N[C@@H](Cc1ccc(OP(=O)(O)O)cc1)C(=O)N[C@@H](CC(=O)O)C(=O)N[C@@H](CCC(=O)O)C(=O)N[C@H](C(=O)N[C@@H](C)C(=O)N[C@@H](C)C(=O)N[C@@H](CNC(=O)c1cccc(S(=O)(=O)F)c1)C(N)=O)C(C)C [p7] (Biotin-EEHI[pY]DEVAA[Dap](Benzoyl(3-SO2F))-NH2)
reactivity with Nck (Nck): noticeable reactivity

EEHIpYDEVAADP [12-residue pY-containing Tir peptide]
binding to Nck-SH2 (Nck-SH2): strong binder to Nck-SH2
